Literature values in patent US20160206641A1, “RAPIDLY-[…] FILM FORMULATION OF WATER SOLUBLE […] GLYCOSIDE FOR THE TREATMENT OF […] DISEASE” (LUMINUS BIOSCIENCES INC., priority 2013, published 2016).
Converted amounts (≈) assume the structure as drawn.

C[C@@H]1O[C@@H](O[C@H]2C[C@@H](O)[C@]3(CO)[C@H]4[C@H](O)C[C@]5(C)[C@@H](C6=CC(=O)OC6)CC[C@]5(O)[C@@H]4CC[C@]3(O)C2)[C@H](O)[C@H](O)[C@H]1O [ouabain, 1β,3β,5β,11α,14,19-Hexahydroxycard-20(22)-enolide 3-(6-deoxy-α-L-mannopyranoside)]
solubility in cold water (cold water): 10000 µg/mL (≈ 17.1 mM) | solubility in hot water (hot water): more than 50 mg/ml
